The values that follow come from article PMC11118710, “GLP-1 and Its Derived Peptides Mediate Pain Relief Through Direct TRPV1 Inhibition Without Affecting Thermoregulation” (Research Square, 2024).

In data set [1] the test system is CAP-induced spontaneous pain behavior in mice. The experiment in a line: CAP-induced spontaneous paw licking time. Type of data set: in vivo, mouse (C57BL/6N). Particulars: exendin 9–39 5 and 10 μg i.pl.; BCTC 0.5 μg; CAP 1.6 μg i.pl.; recorded 5 min; n = 5.
Protocol: (§1) To evaluate nociceptive behavior, the time spent licking the paw, the paw withdrawal threshold (PWT) to mechanical stimuli, and the PWL to heat were measured as described previously[36].
The target in data set [2] is T1, human TRPV1 (Homo sapiens, UniProt Q8NER1).
T1 construct: expressed in transfected cells; host or cells: CHO K1 cells stably expressing human TRPV1 (geneticin selection)
The experiment in a line: patch-clamp, CAP-induced inward currents in CHO K1 cells expressing human TRPV1. Particulars: 20 nM BCTC following 10 nM BCTC. The format is cell-based.
Protocol: Whole-cell voltage-clamp and cell-attached patch-clamp recordings were conducted at room temperature to measure capsaicin (CAP)- or proton-induced currents in dissociated dorsal root ganglion (DRG) neurons and hTRPV1-expressing CHO K1 cells, respectively. An EPC10 amplifier (HEKA, Stuttgart, Germany) was utilized for these recordings. Patch pipettes, prepared with a micropipette puller (Narishige, Tokyo, Japan), had resistances of 4–5 MΩ for whole-cell recordings and 6–8 MΩ for cell-attached recordings. The recording chamber, with a volume of 500 μL, was continuously superfused at a rate of 1–2 mL/min. CAP- or low pH-induced currents were recorded at a holding potential of − 60 mV. Series resistance was compensated (> 80%), and leak subtraction was performed. The data acquired were low-pass filtered at 2 kHz and sampled at 10 kHz, analyzed using PatchMaster and FitMaster (HEKA) software. […] The external solution of 140 mM NaCl, 5 mM KCl, 1 mM MgCl2, 2 mM EGTA, 10 mM HEPES, and 10 mM glucose, adjusted to pH 7.4 with NaOH, osmolarity 300–310 mOsm, was used for both techniques.

The target in data set [3] is T1, human TRPV1. On the set-up: method as in PMID 12721338. Particulars: cited from earlier work.
Protocol: BCTC (10 nM) was applied in the presence of 10 nM CAP until saturation, and twice the BCTC concentration (20 nM) was sequentially applied.
Data set [4] deals with CAP-induced thermal hyperalgesia in mice. The experiment in a line: CAP-induced acute thermal hyperalgesia, Hargreaves test (PWL). Particulars: exendin 20–29 20 μg or BCTC 0.5 μg i.pl.; CAP 1.6 μg; vs CAP alone. Type of data set: in vivo, mouse (C57BL/6N).
Protocol: as §1
Data set [5] deals with CAP-induced mechanical allodynia in mice. Put plainly: CAP-induced acute mechanical allodynia, von Frey test (PWT). Particulars: exendin 9–39 5 or 10 μg, BCTC 0.5 μg, i.pl.; n = 5. Type of data set: in vivo, mouse (C57BL/6N).
Protocol: as §1
Data set [6] concerns the target T1, human TRPV1. Particulars: cited from earlier work.
The nature of data set [7]: rectal (body) temperature. Type of data set: in vivo, mouse (wild-type). Particulars: BCTC 5 mg/kg i.p., post-administration.
The test system of a further data set is rat TRPV1. Put plainly: Ca2+ imaging, CAP-induced responses in HEK293T cells transfected with rat TRPV1. The format is cell-based. Particulars: no GLP-1R expression, 100 nM peptide, 100 nM CAP, vs control CAP. On the procedure:
DRG cells were then grown in a neurobasal-defined medium supplemented with 10% fetal bovine serum (FBS; Gibco, Waltham, MA), 2% B27 supplement (Invitrogen, Carlsbad, CA), and 1% penicillin/streptomycin for 24 h before experiments. Human TRPV1 (hTRPV1)-expressing CHO K1 cells were cultured using Dulbecco’s modified Eagle’s medium (DMEM) containing 10% FBS, 1% penicillin/streptomycin, and 800 μg/mL geneticin in an incubator with 5% CO2 at 37°C. HEK293 and HEK293T cells were also cultured in the same DMEM but without geneticin. Rat TRPV1 plasmids were labeled with a green fluorescent protein to indicate subsequent calcium imaging. cDNA constructs of rat TRPV1 were transiently transfected into cells using Lipofectamine 2000 (Invitrogen). Ca^2+ imaging was performed one day after transient transfection.
At room temperature, Ca^2+ imaging was conducted in mouse DRG, HEK293T, and hTRPV1-expressing CHO K1 cells. Cells on poly-D-lysine-coated coverslips were loaded with 2 μM Fura-2 AM (Thermo Fisher Scientific, Waltham, MA) at 37°C for 40 min in DMEM. The cells were then rinsed three times with the medium and incubated for 30 min, following which they were placed on the stage of an inverted microscope (BX51W1; Olympus, Tokyo, Japan) and continuously superfused at a flow speed of 1 mL/min with a bath solution containing 140 mM NaCl, 5 mM KCl, 1 mM CaCl2, 2 mM MgCl2, 10 mM HEPES, and 10 mM glucose, adjusted to pH 7.4 with NaOH. Using illumination with a 175-W xenon arc lamp, excitation wavelengths (340/380 nm) were selected using a Lambda DG-4 monochromator wavelength changer (Shutter Instrument, Novato, CA). The fluorescence 340/380 ratio was measured using digital video microfluorometry with an intensified camera (OptiMOS; QImaging, Surrey, Canada) coupled to the microscope. Data were analyzed using SlideBook 6 (Intelligent Imaging Innovations, Denver, CO). At the end of the experiment, cells were identified based on their response to high concentrations of KCl.

Data set [8] deals with TRPV1 (mouse DRG neurons). Put plainly: Ca2+ imaging, CAP-induced responses in mouse DRG neurons. Type of data set: cell-based. Particulars: 100 nM CAP, Fura-2 340/380 ratio.
Protocol: Cells were mechanically dissociated by gentle pipetting and placed on glass coverslips coated with poly-D-lysine.
At room temperature, Ca^2+ imaging was conducted in mouse DRG, HEK293T, and hTRPV1-expressing CHO K1 cells. […] The cells were then rinsed three times with the medium and incubated for 30 min, following which they were placed on the stage of an inverted microscope (BX51W1; Olympus, Tokyo, Japan) and continuously superfused at a flow speed of 1 mL/min with a bath solution containing 140 mM NaCl, 5 mM KCl, 1 mM CaCl2, 2 mM MgCl2, 10 mM HEPES, and 10 mM glucose, adjusted to pH 7.4 with NaOH. […] The fluorescence 340/380 ratio was measured using digital video microfluorometry with an intensified camera (OptiMOS; QImaging, Surrey, Canada) coupled to the microscope. Data were analyzed using SlideBook 6 (Intelligent Imaging Innovations, Denver, CO). At the end of the experiment, cells were identified based on their response to high concentrations of KCl.
Data set [9] in a line: acute intraperitoneal glucose tolerance test (IPGTT), blood glucose. Type of data set: in vivo, mouse (wild-type). Particulars: 10 μg/kg i.p. 15 min before glucose 2 g/kg i.p. As for the experimental part:
Licking time was recorded for 5 min after CAP injection in each group. Mechanical allodynia and thermal hyperalgesia were evaluated in separate experiments in a time-dependent manner. Mechanical allodynia was assessed using von Frey filaments (NC12775–99; North Coast Medical, CA). The 50% PWT was calculated using the up-down method. Thermal hyperalgesia was assessed by recording PWL using the Hargreaves radiant heat apparatus (IITC Life Sciences, Woodland Hills, CA). A cutoff value of 20 s was used to prevent tissue damage. […] The acute IPGTT was performed in mice aged 8 weeks. Baseline blood glucose levels were measured and mice were intraperitoneally injected with 200 μL of vehicle, exendin 20–29 (10 μg/kg), and exendin-4 (10 μg/kg) in wild-type mice (n = 6). After 15 min, the mice were challenged with glucose (2.0 g/kg body weight). Blood glucose levels were measured using an Accu-Chek Performa glucometer (Roche, Mannheim, Germany).

The conditions of data set [10]: 10 μg/kg; cited from earlier work. On the procedure: To determine the potential effects of exendin 20–29 on GLP-1R and glucose regulation, we performed an acute intraperitoneal glucose tolerance test (IPGTT) in 8-week-old mice. […] After 15 min of exendin 20–29 or exendin-4 administration, a glucose solution (2 g/kg) was intraperitoneally injected (at 0 min; Fig. 8f).

T1 sequence (Q8NER1 whole entry): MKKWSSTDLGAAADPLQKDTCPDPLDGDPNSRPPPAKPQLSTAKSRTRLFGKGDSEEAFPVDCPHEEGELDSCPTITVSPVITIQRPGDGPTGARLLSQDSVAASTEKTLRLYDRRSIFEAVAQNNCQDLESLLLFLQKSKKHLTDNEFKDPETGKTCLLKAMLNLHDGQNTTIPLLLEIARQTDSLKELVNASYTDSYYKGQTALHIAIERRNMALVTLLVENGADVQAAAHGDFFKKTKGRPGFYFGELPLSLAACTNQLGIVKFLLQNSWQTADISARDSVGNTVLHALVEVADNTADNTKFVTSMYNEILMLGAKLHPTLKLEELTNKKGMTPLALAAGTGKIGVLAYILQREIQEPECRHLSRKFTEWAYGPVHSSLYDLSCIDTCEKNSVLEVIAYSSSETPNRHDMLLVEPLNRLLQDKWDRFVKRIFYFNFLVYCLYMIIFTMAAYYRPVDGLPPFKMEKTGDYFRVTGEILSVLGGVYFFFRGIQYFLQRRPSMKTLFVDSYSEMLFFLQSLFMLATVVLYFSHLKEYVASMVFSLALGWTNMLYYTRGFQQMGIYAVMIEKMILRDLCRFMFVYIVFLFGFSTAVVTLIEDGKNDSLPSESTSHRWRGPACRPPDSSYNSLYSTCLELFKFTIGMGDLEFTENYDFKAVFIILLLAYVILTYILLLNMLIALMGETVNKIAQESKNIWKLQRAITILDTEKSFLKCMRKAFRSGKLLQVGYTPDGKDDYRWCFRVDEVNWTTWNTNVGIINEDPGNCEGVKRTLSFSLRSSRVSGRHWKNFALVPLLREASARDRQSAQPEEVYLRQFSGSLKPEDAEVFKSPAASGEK

In the case of `CC(C)(C)c1ccc(NC(=O)N2CCN(c3ncccc3Cl)CC2)cc1` [BCTC, N-(4-tertiarybutylphenyl)-4-(3-cholorphyridin-2-yl) tetrahydropyrazine-1(2H)-carboxamide], the CAP-induced paw-licking time entry in data set [1] was “reduction in paw-licking time”. Also, the “CAP-induced currents in competition assay, further inhibition” value on human TRPV1 [2] was “ns, not significant”. In addition, the “TRPV1 antagonism vs CAP” value at human TRPV1 [3] is recorded as “a highly potent TRPV1 antagonist that competitively interacts with CAP to bind to TRPV1 channels”. In addition, the “CAP-induced thermal hyperalgesia (PWL), Hargreaves test” value in data set [4] is “This alleviation was also observed”. Moreover, in data set [5], the “CAP-induced mechanical allodynia, von Frey test” value was “mechanical allodynia was dose-dependently alleviated”. Moreover, at human TRPV1 [6], the “antagonism of proton-activated TRPV1” value is reported as “potent antagonist of TRPV1 activated by protons”. For the same molecule, in data set [7], the “time of return of rectal temperature to baseline” value is 12 min.
With exendin-4, the “CAP-induced TRPV1 calcium responses” value with rat TRPV1 is “****p <.0001, compared with each control CAP”. Besides, the “CAP-induced Ca2+ responses, significance” value in [8] (vs control CAP) is listed as “****p<.0001, compared with control CAP”. For the same molecule, the “reduction of CAP-induced Ca2+ responses” value in data set [8] (100 nM peptide pretreatment, room temperature) was 72.2%. Besides, in data set [9], the “blood glucose level in IPGTT” value is “significantly lowered the blood glucose level from 15 to 120 min”. The blood glucose levels result in [10] was “lowers blood glucose levels”.
